What all share (assay type): cell-based
For test [1], the system named is NF-κB. The test is described as follows: Test for an Activity of Inhibiting NF-κB Activation (gel shift assay, UVB-irradiated human epidermal cells). Particulars: light or radiation study, read-out: inhibitory rate (%) of NF-κB activation; for inhibition at 1000 µM: concentration 1 mM; for inhibition at 2000 µM: concentration 2 mM; for inhibition at 10 µM: concentration 10 μM; for inhibition at 20 µM: concentration 20 μM; for inhibition at 100 µM: concentration 100 μM; for inhibition at 50 µM: concentration 50 μM. Here is the method:
Test for an Activity of Inhibiting NF-κB Activation
(§1) Eighteen hours later, the culture solution was replaced with a phenol red-free medium. The cells were subjected to UV irradiation (UVB: 50 mJ/m^2)using Dermaray M-DMR-80 (supplied by Toshiba Iryo Yohin KK). After from 4 to 5 hours passed, the cells were recovered, and the nucleoproteins were extracted in a usual manner. With respect to the resulting nucleoproteins, NF-κB activated by gel shift assay was detected. The amount of NF-κB was determined by measuring a radioactivity of an NF-κB band using a bio-imaging analyzer BAS 2000 (supplied by Fuji Photo Film). The rate of inhibition of NF-κB activation on the test compound was calculated using formula (III).
Rate (%) of inhibition of NF-κB activation={1−(A1−A3)/(A2−A3)}×100 (III)
A1: radioactivity of an NF-κB band in the addition of the test compound
A2: radioactivity of an NF-κB band in the non-addition of the test compound
A3: radioactivity of an NF-κB band when the test compound was not added, nor was UV irradiation conducted

Test [2] concerns collagenase. The test is described as follows: Test for an Activity of Inhibiting Collagenase Expression (MMP-1 ELISA, UVA-irradiated human dermal fibroblasts). Particulars: Fibroblast, light or radiation study, 24 h, read-out: inhibitory rate (%) of collagenase expression; for inhibition at 500 µM: concentration 0.5 mM; for inhibition at 1 µM: concentration 1 μM; for inhibition at 10 µM: concentration 10 μM; for inhibition at 1000 µM: concentration 1 mM. Here is the method:
Test for an Activity of Inhibiting Collagenase Expression
The test compound was added to human dermal fibroblasts which had become confluent in a culture plate. Eighteen hours later, the culture solution was replaced with a phenol red-free medium. The cells were subjected to UV irradiation (UVA; 20 J/cm^2) using Dermaray M-DMR-80 (supplied by Toshiba Iryo Yohin KK). After 24 hours passed, the culture solution was recovered, and the collagenase concentration in the culture solution was measured using MMP-1α·ELISA System (supplied by Amersham Corp.). The rate of inhibition of collagenase expression on the test compound was calculated using formula (VI).
Rate (%) of inhibition of collagenase expression={1−(B4−B6)/(B5−B6)}×100 (VI)
B4: collagenase concentration in the addition of the test compound
B5: collagenase concentration in the non-addition of the test compound
B6: collagenase concentration when the test compound was not added, nor was UV irradiation conducted

For test [3], the system named is AP-1. The test is described as follows: Test for an Activity of Inhibiting AP-1 Activation (gel shift assay, UVA-irradiated human dermal fibroblasts). Particulars: AP1, light or radiation study, read-out: inhibitory rate (%) of AP-1 activation; for inhibition at 10 µM: concentration 10 μM; for inhibition at 1 µM: concentration 1 μM; for inhibition at 5 µM: concentration 5 μM; for inhibition at 500 µM: concentration 0.5 mM; for inhibition at 1000 µM: concentration 1 mM. As to the method: Test for an Activity of Inhibiting AP-1 Activation
as §1, with “The test compound was added to human dermal fibroblasts which had become confluent in a culture plate. Eighteen” for “Eighteen”, “(UVA: 20 J/cm^2) using” for “(UVB: 50 mJ/m^2)using”, “AP-1” for “NF-κB”, “(IV).” for “(III).”
Rate (%) of inhibition of AP-1 activation={1−(A4−A6)/(A5−A6)}×100 (IV)
A4: radioactivity of an AP-1 band in the addition of the test compound
A5: radioactivity of an AP-1 band in the non-addition of the test compound
A6: radioactivity of an AP-1 band when the test compound was not added, nor was UV irradiation conducted

In test [4] the test system is IL-1α. The test is described as follows: Test for an Activity of Inhibiting IL-1α Expression (ELISA, UVB-irradiated human epidermal cells). The settings on record: light or radiation study, 24 h, read-out: inhibitory rate (%) of IL-1α expression; for inhibition at 10 µM: concentration 10 μM; for inhibition at 50 µM: concentration 50 μM; for inhibition at 100 µM: concentration 100 μM. Here is the method:
Test for an Activity of Inhibiting IL-1α Expression
The test compound was added to human epidermal cells which had become confluent in a culture plate. Eighteen hours later, the culture solution was replaced with a phenol red-free medium. The cells were subjected to UV irradiation (UVB: 50 mJ/cm^2) using Dermaray M-DMR-80 (supplied by Toshiba Iryo Yohin KK). After 24 hours passed, the culture solution was recovered, and the IL-1α concentration in the culture solution was measured using IL-1α·ELISA System (supplied by Amersham Corp.). The rate of inhibition of IL-1α expression on the test compound was calculated using formula (V).
Rate (%) of inhibition of IL-1α expression={1−(B1−B3)/(B2−B3)}×100 (V)
B1: IL-1α concentration in the addition of the test compound
B2: IL-1α concentration in the non-addition of the test compound
B3: IL-1α concentration when the test compound was not added, nor was UV irradiation conducted

Read-outs that look alike come from different tables or passages of the source.

For the compound `CCOC(=O)[C@@H](C)NCc1ccccc1O` [N-(2-hydroxybenzyl)-D-alanine ethyl ester], in test [1], the inhibition at 1000 µM turned out to be 90% and the inhibition at 2000 µM turned out to be 87%. In addition, the inhibition at 500 µM in test [2] was found to be 108%.

Take `CCCCCCCCCCCCNC(=O)[C@H](C)NCc1ccccc1O` [N-(2-hydroxybenzyl)-L-alanine lauryl amide]: the inhibition at 10 µM was 53% in test [1], 57% in test [3] and 69% in test [4]. Also, the inhibition at 20 µM in test [1] worked out at 65%; in test [3] (concentration 20 μM), 56%. In addition, in test [4], the inhibition at 50 µM came out at 73%. Moreover, the inhibition at 1 µM in test [2] is 57%.

Take `CCCCCCCCCCCCOC(=O)[C@H](C)NCc1ccccc1O` [N-(2-hydroxybenzyl)-L-alanine lauryl ester]: the inhibition at 10 µM in test [1] was 20%; in test [4], 23%; in test [2] it was 58%. Further, the results for the inhibition at 100 µM in test [1] and in test [4] were 81% and 72%, respectively. Moreover, the inhibition at 10000 µM in test [3] (concentration 10 mM) stood at 68%.

`CCCCCCCCCCCCCCCCCCNC(=O)[C@H](C)NCc1ccccc1O` [N-(2-hydroxybenzyl)-L-alanine stearyl amide]: the inhibition at 1 µM in test [3] and in test [2] was 72% throughout. Also, the inhibition at 5 µM in test [3] came out at 47%; in test [4] (concentration 5 μM) it was 30%. Also, the inhibition at 10 µM in test [4] is 77%.

In the case of `CCCCCCCCCCCCCCCCCCOC(=O)[C@H](C)NCc1ccccc1O` [N-(2-hydroxybenzyl)-L-alanine stearyl ester], the inhibition at 10 µM is 31% in test [1] and 25% in test [4]. Besides, the inhibition at 1 µM in test [3] turned out to be 20%; in test [4] (concentration 1 μM), 25%; in test [2], 57%. The inhibition at 5 µM in test [3] amounted to 48%.

For the compound `CCCCCCCCCCCCOC(=O)[C@H](CCC(=O)O)NCc1ccccc1O` [N-(2-hydroxybenzyl)-L-glutamic acid lauryl ester], in test [1], the inhibition at 100 µM is 45%. Moreover, the inhibition at 10 µM in test [3] turned out to be 33%; in test [4], 54%; in test [2], 49%. Also, in test [2], the inhibition at 1 µM was found to be 53%.

`CCOC(=O)[C@H](Cc1c[nH]cn1)NCc1ccccc1O` [N-(2-hydroxybenzyl)-L-histidine ethyl ester]: in test [1], the inhibition at 1000 µM worked out at 69% and the inhibition at 2000 µM was 72%. Also, in test [3], the inhibition at 500 µM worked out at 20% and the inhibition at 1000 µM amounted to 38%. In addition, the inhibition at 100 µM in test [2] (concentration 0.1 mM) came to 44%. Also, in test [2], the inhibition at 1000 µM turned out to be 51%.

In the case of `CCCCCCCCCCCCNC(=O)[C@H](CC(C)C)NCc1ccccc1O` [N-(2-hydroxybenzyl)-L-leucine lauryl amide], the inhibition at 10 µM in test [1] was 40%; in test [2], 60%. For the same compound, the results for the inhibition at 50 µM in test [1] and in test [4] were 89% and 79%, respectively. In addition, in test [4] (concentration 20 μM), the inhibition at 20 µM amounted to 27%. The inhibition at 1 µM in test [2] is 37%.

On to `CCCCCCCCCCCCOC(=O)[C@H](CC(C)C)NCc1ccccc1O` [N-(2-hydroxybenzyl)-L-leucine lauryl ester], for which, in test [1], the inhibition at 10 µM was found to be 21% and the inhibition at 20 µM worked out at 23%. Besides, in test [2], the inhibition at 10 µM was 21%.

For `CCNC(=O)[C@H](Cc1ccccc1)NCc1ccccc1O` [N-(2-hydroxybenzyl)-L-phenylalanine ethyl amide], the inhibition at 500 µM amounted to 102% in test [1] (concentration 0.5 mM), 34% in test [3] and 27% in test [2]. Besides, the inhibition at 1000 µM was determined as 47% in test [1] and 61% in test [3]. The inhibition at 100 µM in test [2] (concentration 0.1 mM) was 32%.

On to `CCCCCCCCCCCCNC(=O)[C@@H]1CCC(=O)N1Cc1ccccc1O` [N-(2-hydroxybenzyl)-L-pyroglutamic acid lauryl amide], for which the inhibition at 50 µM in test [1] came out at 75%; in test [4] it was 28%; in test [2] (concentration 50 μM), 52%. In addition, the inhibition at 100 µM in test [1] was found to be 74%; in test [3] (concentration 100 μM), 42%. Also, the figures for the inhibition at 10 µM in test [4] and in test [2] were 25% and 23%, respectively.

In the case of `CCCCCCCCCCCCOC(=O)[C@H](Cc1ccc(O)cc1)NCc1ccccc1O` [N-(2-hydroxybenzyl)-L-tyrosine lauryl ester], the inhibition at 5 µM in test [1] (concentration 5 μM) was found to be 20%. For the same compound, the results for the inhibition at 10 µM in test [1], in test [3] and in test [2] were 43%, 45% and 61%, respectively. In test [3], the inhibition at 1 µM came to 19%.

For `CCOC(=O)CNCc1ccccc1O` [N-(2-hydroxybenzyl)glycine ethyl ester], the inhibition at 10 µM in test [2] turned out to be 39%. Also, the inhibition at 100 µM in test [2] (concentration 100 μM) was determined as 46%.

As for `CC(=O)Oc1ccccc1C(=O)O` [aspirin, reference compound], the inhibition at 1000 µM in test [3] is -4%; in test [2], -197%. The inhibition at 5000 µM in test [3] (concentration 5 mM) came out at 14%.

As to `C[C@@H]1C[C@H]2[C@@H]3CCC4=CC(=O)C=C[C@]4(C)[C@@]3(F)[C@@H](O)C[C@]2(C)[C@@]1(O)C(=O)CO` [dexamethasone, reference compound], in test [3], the inhibition at 1 µM is 39% and the inhibition at 10 µM was 34%. Besides, in test [4], the inhibition at 10 µM worked out at 48% and the inhibition at 100 µM worked out at 65%. In test [2], the inhibition at 1 µM is 27% and the inhibition at 10 µM turned out to be 53%.

The values are drawn from patent US6552061B1, “Amino acid derivatives and anti-inflammatory agents” (Ajinomoto Co., Inc., priority 1998, dated 2003).
